Earlier results in patent EP4640075A1, “ORAL POUCHED PRODUCT WITH SELF-EMULSIFYING DELIVERY SYSTEM” (Nicoventures Trading Limited, priority 2024, dated 2025).

Details: Values obtained from PubChem or calculated

## tocopherol succinate
  log(P)*: 10.2
